PMC3706556 (Environmental microbiology, 2013)

Key:
CYP142A2 [1] = molecular target: T1, CYP142A2 (Mycolicibacterium smegmatis, UniProt A0R4Q6); assay: biochemical
CYP125A3 = CYP125A3 (Mycolicibacterium smegmatis, UniProt A0R4Y3); assay: biochemical; assay type: binding, Mycobacterium smegmatis mc2 155; details: for Soret band position after ligand addition: CYP125A3 3 μM, ligand 50 μM, resting Soret 393 nm with shoulder at 415 nm
CYP142A2 [2] = molecular target: T1, CYP142A2; details: CYP142A2 3 μM, ligand 50 μM; resting Soret 418 nm

Chain of CYP125A3 (A0R4Y3 whole entry): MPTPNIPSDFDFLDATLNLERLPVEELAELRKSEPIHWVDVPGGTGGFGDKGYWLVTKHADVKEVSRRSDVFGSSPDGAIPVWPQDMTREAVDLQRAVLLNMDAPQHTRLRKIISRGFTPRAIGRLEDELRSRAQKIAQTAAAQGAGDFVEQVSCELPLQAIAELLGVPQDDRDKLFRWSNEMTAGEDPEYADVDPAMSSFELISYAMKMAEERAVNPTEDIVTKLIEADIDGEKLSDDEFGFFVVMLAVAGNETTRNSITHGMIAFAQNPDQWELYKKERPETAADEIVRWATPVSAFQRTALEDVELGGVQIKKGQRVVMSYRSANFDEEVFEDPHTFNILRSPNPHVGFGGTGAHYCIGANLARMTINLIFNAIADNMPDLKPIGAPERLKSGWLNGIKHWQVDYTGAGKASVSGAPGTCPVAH
T1 sequence (A0R4Q6 whole entry): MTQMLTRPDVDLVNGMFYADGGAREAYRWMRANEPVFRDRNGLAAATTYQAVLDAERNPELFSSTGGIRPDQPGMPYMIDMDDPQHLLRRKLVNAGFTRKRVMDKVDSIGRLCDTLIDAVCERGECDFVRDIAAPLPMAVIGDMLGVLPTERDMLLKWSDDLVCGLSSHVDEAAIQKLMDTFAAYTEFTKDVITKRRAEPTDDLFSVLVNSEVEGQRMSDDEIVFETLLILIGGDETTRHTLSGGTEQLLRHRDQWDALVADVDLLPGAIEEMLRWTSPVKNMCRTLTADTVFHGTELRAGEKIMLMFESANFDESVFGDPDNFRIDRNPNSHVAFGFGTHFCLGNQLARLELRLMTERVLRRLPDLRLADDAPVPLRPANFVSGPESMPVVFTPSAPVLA

Clc1ccccc1C(c1ccccc1)(c1ccccc1)n1ccnc1 [Clotrimazole]
Kd (CYP142A2 [1]): 16.2 ± 0.75 µM
Kd (CYP125A3): 14.5 ± 1.58 µM

Clc1ccc(COC(Cn2ccnc2)c2ccc(Cl)cc2Cl)cc1 (centres unmarked) [Econazole]
Soret band position after ligand addition (CYP142A2 [2]): 422 nm
Kd (CYP142A2 [1]): 7.4 ± 0.52 µM
Kd (CYP125A3): 7.38 ± 0.71 µM
Soret band position after ligand addition (CYP125A3): 415 nm

Clc1ccc(COC(Cn2ccnc2)c2ccc(Cl)cc2Cl)c(Cl)c1 (centres unmarked) [Miconazole]
Kd (CYP142A2 [1]): 6.58 ± 0.7 µM
Kd (CYP125A3): 1.66 ± 0.21 µM

CC(C)CCC[C@@H](C)[C@H]1CC[C@H]2[C@@H]3CCC4=CC(=O)CC[C@]4(C)[C@H]3CC[C@]12C [Cholest-4-en-3-one]
Kd (CYP142A2 [1]): 0.52 ± 0.26 µM
Kd (CYP125A3): 2.3 ± 1.4 µM

CC(C)CCC[C@@H](C)[C@H]1CC[C@H]2[C@@H]3CC=C4C[C@@H](O)CC[C@]4(C)[C@H]3CC[C@]12C [Cholesterol]
Soret band position after ligand addition (CYP142A2 [2]): 393 nm
Kd (CYP142A2 [1]): 0.14 ± 0.07 µM
Kd (CYP125A3): 1.1 ± 0.5 µM
Soret band position after ligand addition (CYP125A3): 393 nm
